The results in this text go back to patent publication US20260109690A1, “HDAC6 INHIBITORS AND METHOD OF THEIR USE” (Baerenkraft Therapeutics, LLC., priority 2024, published 2026).

Where a name gives a salt, the structure may show the parent alone. Bounds are passed on as bounds.

One experiment deals with T1, HDAC6 (Homo sapiens, UniProt Q9UBN7).
T1 sequence (Q9UBN7 1-1215): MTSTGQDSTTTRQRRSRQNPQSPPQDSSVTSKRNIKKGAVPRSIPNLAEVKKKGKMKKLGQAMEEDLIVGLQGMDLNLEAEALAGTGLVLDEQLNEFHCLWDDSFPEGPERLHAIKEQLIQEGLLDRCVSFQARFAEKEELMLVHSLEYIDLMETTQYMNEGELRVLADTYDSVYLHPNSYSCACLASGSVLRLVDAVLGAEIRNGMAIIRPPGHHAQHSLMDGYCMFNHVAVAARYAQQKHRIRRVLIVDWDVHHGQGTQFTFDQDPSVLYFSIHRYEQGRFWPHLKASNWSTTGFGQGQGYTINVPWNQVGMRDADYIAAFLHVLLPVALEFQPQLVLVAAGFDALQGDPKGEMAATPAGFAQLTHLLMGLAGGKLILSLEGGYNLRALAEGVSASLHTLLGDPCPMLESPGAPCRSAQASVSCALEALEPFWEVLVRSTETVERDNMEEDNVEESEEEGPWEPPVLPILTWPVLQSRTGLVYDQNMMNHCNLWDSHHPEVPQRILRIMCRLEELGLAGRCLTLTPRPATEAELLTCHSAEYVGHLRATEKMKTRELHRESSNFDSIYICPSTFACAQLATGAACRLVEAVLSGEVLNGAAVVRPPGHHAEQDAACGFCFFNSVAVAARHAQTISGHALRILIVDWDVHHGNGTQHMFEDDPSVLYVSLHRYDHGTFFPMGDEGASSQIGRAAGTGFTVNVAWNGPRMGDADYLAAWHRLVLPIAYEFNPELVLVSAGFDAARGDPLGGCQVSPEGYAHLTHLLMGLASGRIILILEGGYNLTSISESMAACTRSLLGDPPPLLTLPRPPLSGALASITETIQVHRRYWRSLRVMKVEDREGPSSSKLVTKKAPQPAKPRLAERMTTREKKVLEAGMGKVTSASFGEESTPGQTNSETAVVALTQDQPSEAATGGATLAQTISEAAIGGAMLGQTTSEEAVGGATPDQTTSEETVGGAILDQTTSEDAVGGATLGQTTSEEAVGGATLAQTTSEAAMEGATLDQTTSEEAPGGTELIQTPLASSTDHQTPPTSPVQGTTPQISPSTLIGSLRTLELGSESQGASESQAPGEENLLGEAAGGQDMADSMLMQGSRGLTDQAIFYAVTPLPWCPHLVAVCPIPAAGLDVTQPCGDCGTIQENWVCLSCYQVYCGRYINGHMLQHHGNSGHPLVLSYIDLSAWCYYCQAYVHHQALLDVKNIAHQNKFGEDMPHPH
Description: Biochemical HDAC6 inhibitory activity assay. The following applies: 10-dose IC50 mode, in singlet, 3-fold serial dilution starting at 1 μM; read-out: HDAC6 IC50.
For the compound `C[C@H]1CN(Cc2ccc(Nc3nccc(-c4ccc(C(=O)NO)cc4)n3)cc2F)CCO1` [Compound I-15, (S)-4-(2-((3-fluoro-4-((2-methylmorpholino)methyl)phenyl)amino)pyrimidin-4-yl)-N-hydroxybenzamide], the 50% inhibitory concentration (IC50) stood at 0.016 µM.

Still in this experiment, the particulars now being: read-out: HDAC6 IC50.
Turning to `CCNNC(=O)c1ccc(-c2nc(N3CCOCC3)ncc2Cl)cc1` [Compound I-22, 4-(5-chloro-2-morpholinopyrimidin-4-yl)-N′-ethylbenzohydrazide], the IC50 is > 100 µM.
Still for that read-out and setting: then `CCNNC(=O)c1ccc(-c2ccnc(Nc3ccc(C(=O)N4CCOCC4)cc3)n2)cc1` [Compound I-19, N′-ethyl-4-(2-((4-(morpholine-4-carbonyl)phenyl)amino)pyrimidin-4-yl)benzohydrazide], with < 1 µM; and `N#CNC(=O)c1ccc(-c2ccnc(Nc3ccc(C(=O)N4CCOCC4)c(F)c3)n2)cc1` [Compound I-2, N-cyano-4-(2-((3-fluoro-4-(morpholine-4-carbonyl)phenyl)amino)pyrimidin-4-yl)benzamide], with > 100 µM; and `C[C@H]1CN(Cc2ccc(Nc3nccc(-c4ccc(C(=O)NO)cc4)n3)cc2F)CCO1` [Compound I-15, (S)-4-(2-((3-fluoro-4-((2-methylmorpholino)methyl)phenyl)amino)pyrimidin-4-yl)-N-hydroxybenzamide], with < 1 µM.
On the same count and under the same terms, then `CCNNC(=O)c1ccc(-c2ccnc(N3CCOCC3)n2)cc1` [Compound I-21, N′-ethyl-4-(2-morpholinopyrimidin-4-yl)benzohydrazide], with < 1 µM; and `CC(c1ccc(Nc2nccc(-c3ccc(C(=O)NO)cc3)n2)cc1F)N1CCN(C)CC1` (stereo not shown) [Compound I-10, 4-(2-((3-fluoro-4-(1-(4-methylpiperazin-1-yl)ethyl)phenyl)amino)pyrimidin-4-yl)-N-hydroxybenzamide], with < 1 µM.
On the same count and under the same terms, as for `Fc1cc(Nc2nccc(-c3ccc(-c4nnc(C(F)F)o4)cn3)n2)ccc1N1CCOCC1` [Compound I-40, 4-(5-(5-(difluoromethyl)-1,3,4-oxadiazol-2-yl)pyridin-2-yl)-N-(3-fluoro-4-morpholinophenyl)pyrimidin-2-amine], the figure is 1 to 10 µM; as for `C[C@@H]1CN(Cc2ccc(Nc3nccc(-c4ccc(-c5nnc(C(F)F)o5)cc4F)n3)cc2F)CCO1` [Compound I-33, (R)-4-(4-(5-(difluoromethyl)-1,3,4-oxadiazol-2-yl)-2-fluorophenyl)-N-(3-fluoro-4-((2-methylmorpholino)methyl)phenyl)pyrimidin-2-amine], < 1 µM.
On to `C[C@H]1CN(Cc2ccc(-c3ccnc(Nc4ccc(-c5nnc(C(F)F)o5)cc4F)n3)c(F)c2)CCO1` [Compound I-36, (S)-N-(4-(5-(difluoromethyl)-1,3,4-oxadiazol-2-yl)-2-fluorophenyl)-4-(2-fluoro-4-((2-methylmorpholino)methyl)phenyl)pyrimidin-2-amine], for which the 50% inhibitory concentration (IC50) was 1 to 10 µM.
In the case of `C[C@H]1CN(Cc2ccc(Nc3nccc(-c4ccc(-c5nnc(C(F)F)o5)cn4)n3)cc2F)CCO1` [Compound I-34, (S)-4-(5-(5-(difluoromethyl)-1,3,4-oxadiazol-2-yl)pyridin-2-yl)-N-(3-fluoro-4-((2-methylmorpholino)methyl)phenyl)pyrimidin-2-amine], the IC50 was in the range of 1 to 10 µM.
On the same count and under the same terms, then `CC1CN(C(C)c2ccc(Nc3nccc(-c4ccc(C(=O)NO)cc4)n3)cc2F)CCO1` (stereo not shown) [Compound I-13, 4-(2-((3-fluoro-4-(1-(2-methylmorpholino)ethyl)phenyl)amino)pyrimidin-4-yl)-N-hydroxybenzamide], with < 1 µM; and `CCNNC(=O)c1ccc(-c2ccnc(NC(=O)N3CCOCC3)n2)cc1` [Compound I-20, N-(4-(4-(2-ethylhydrazine-1-carbonyl)phenyl)pyrimidin-2-yl)morpholine-4-carboxamide], with 1 to 10 µM; and `C[C@@H]1CN(c2ccc(Nc3nccc(-c4ccc(-c5nnc(C(F)F)o5)cn4)n3)cc2F)CCO1` [Compound I-39, (R)-4-(5-(5-(difluoromethyl)-1,3,4-oxadiazol-2-yl)pyridin-2-yl)-N-(3-fluoro-4-(2-methylmorpholino)phenyl)pyrimidin-2-amine], with 1 to 10 µM.
Turning to `C[C@@H]1CN(Cc2ccc(Nc3nccc(-c4ccc(-c5nnc(C(F)F)o5)cn4)n3)cc2F)CCO1` [Compound I-35, (R)-4-(5-(5-(difluoromethyl)-1,3,4-oxadiazol-2-yl)pyridin-2-yl)-N-(3-fluoro-4-((2-methylmorpholino)methyl)phenyl)pyrimidin-2-amine], the half-inhibitory concentration (IC50) lay within 10 to 35 µM.
On the same count and under the same terms, then `CC1CCN(C(=O)c2ccc(Nc3nccc(-c4ccc(C(=O)NO)cc4)n3)cc2F)CC1` [Compound I-3, 4-(2-((3-fluoro-4-(4-methylpiperidine-1-carbonyl)phenyl)amino)pyrimidin-4-yl)-N-hydroxybenzamide], with < 1 µM; and `O=C(NO)c1ccc(-c2ccnc(Nc3ccc(C(=O)N4CCOCC4)c(F)c3)n2)cc1` [Compound I-1, 4-(2-((3-fluoro-4-(morpholine-4-carbonyl)phenyl)amino)pyrimidin-4-yl)-N-hydroxybenzamide], with < 1 µM; and `C[C@@H]1CN(Cc2ccc(Nc3nccc(-c4ccc(-c5nnc(C(F)F)o5)cc4)n3)cc2F)CCO1` [Compound I-32, (R)-4-(4-(5-(difluoromethyl)-1,3,4-oxadiazol-2-yl)phenyl)-N-(3-fluoro-4-((2-methylmorpholino)methyl)phenyl)pyrimidin-2-amine TFA salt], with 1 to 10 µM.
The same measure, in the same setting: then `C[C@H]1CN(Cc2ccc(Nc3nccc(-c4ccc(-c5nnc(C(F)F)o5)cc4F)n3)cc2F)CCO1` [Compound I-31, (S)-4-(4-(5-(difluoromethyl)-1,3,4-oxadiazol-2-yl)-2-fluorophenyl)-N-(3-fluoro-4-((2-methylmorpholino)methyl)phenyl)pyrimidin-2-amine], with < 1 µM; and `CN1CCN(C(=O)c2ccc(Nc3nccc(-c4ccc(C(=O)NO)cc4)n3)cc2F)CC1` [Compound I-4, 4-(2-((3-fluoro-4-(4-methylpiperazine-1-carbonyl)phenyl)amino)pyrimidin-4-yl)-N-hydroxybenzamide], with < 1 µM.
The same measure, in the same setting: then `CC1CN(CC(=O)Nc2nccc(-c3ccc(C(=O)NO)cc3)n2)CCO1` (stereo not shown) [Compound I-14, N-hydroxy-4-(2-(2-(2-methylmorpholino)acetamido)pyrimidin-4-yl)benzamide], with < 1 µM; and `O=C(NO)c1ccc(-c2nc(Nc3ccc(C(=O)N4CCOCC4)c(F)c3)ncc2Cl)cc1` [Compound I-17, 4-(5-chloro-2-((3-fluoro-4-(morpholine-4-carbonyl)phenyl)amino)pyrimidin-4-yl)-N-hydroxybenzamide], with < 1 µM; and `CC1CCN(Cc2ccc(Nc3nccc(-c4ccc(C(=O)NO)cc4)n3)cc2F)CC1` [Compound I-6, 4-(2-((3-fluoro-4-((4-methylpiperidin-1-yl)methyl)phenyl)amino)pyrimidin-4-yl)-N-hydroxybenzamide], with < 1 µM.
In the case of `Cc1cc(-c2ccnc(Nc3ccc(N4CCOC(C)C4)c(F)c3)n2)ccc1C(=O)NO` (stereo not shown) [Compound I-12, 4-(2-((3-fluoro-4-(2-methylmorpholino)phenyl)amino)pyrimidin-4-yl)-N-hydroxy-2-methylbenzamide], the IC50 is 1 to 10 µM.
The same measure, in the same setting: then `CCNNC(=O)c1ccc(-c2ccnc(Nc3ccc(C(=O)N4CCOCC4)c(F)c3)n2)cc1` [Compound I-18, N′-ethyl-4-(2-((3-fluoro-4-(morpholine-4-carbonyl)phenyl)amino)pyrimidin-4-yl)benzohydrazide], with < 1 µM.
